Measurements taken from PubChem BioAssay AID330 (DTP/NCI, 2004).
Values joined by “and” are separate entries in the source; they are usually repeats but may differ in a detail not shown here. Equal values may be shown once. Toxic doses and inconclusive results are not listed.

System: P388 leukemia ip, CD2F1 mice, survival T/C
Assay: NCI In Vivo Anticancer Drug Screen. Data for tumor model P388 Leukemia (intraperitoneal) in CD2F1 (CDF1) mice
Settings: endpoint: median survival time, higher = longer survival
Method in brief: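 Mice carrying the transplanted tumor received test compound or vehicle. Survival was recorded in each group, and the value is the treated-group measurement divided by that of the vehicle-treated control group.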

[1] = dose: 60.0 mg/kg/injection, schedule: Q01DX005 (ip), vehicle: saline with Tween-80
[2] = dose: 120.0 mg/kg/injection, schedule: Q01DX005 (ip), vehicle: saline with Tween-80
[3] = dose: 240.0 mg/kg/injection, schedule: Q01DX005 (ip), vehicle: saline with Tween-80
[4] = dose: 25.0 mg/kg/injection, schedule: Q01DX009 (ip), vehicle: saline with Tween-80
[5] = dose: 50.0 mg/kg/injection, schedule: Q01DX009 (ip), vehicle: saline with Tween-80
[6] = dose: 100.0 mg/kg/injection, schedule: Q01DX009 (ip), vehicle: saline with Tween-80
[7] = dose: 50.0 mg/kg/injection, schedule: Q01DX005 (ip), vehicle: saline with Tween-80
[8] = dose: 100.0 mg/kg/injection, schedule: Q01DX005 (ip), vehicle: saline with Tween-80
[9] = dose: 200.0 mg/kg/injection, schedule: Q01DX005 (ip), vehicle: saline with Tween-80
[10] = dose: 50.0 mg/kg/injection, schedule: Q01DX005 (ip), vehicle: saline
[11] = dose: 50.0 mg/kg/injection, schedule: Q01DX009 (ip), vehicle: saline
[12] = dose: 100.0 mg/kg/injection, schedule: Q01DX005 (ip), vehicle: saline
[13] = dose: 100.0 mg/kg/injection, schedule: Q01DX009 (ip), vehicle: saline
[14] = dose: 200.0 mg/kg/injection, schedule: Q01DX005 (ip), vehicle: saline
[15] = dose: 200.0 mg/kg/injection, schedule: Q01DX009 (ip), vehicle: saline
[16] = dose: 100.0 mg/kg/injection, schedule: Q04DX003 (ip), vehicle: saline with Tween-80
[17] = dose: 200.0 mg/kg/injection, schedule: Q04DX003 (ip), vehicle: saline with Tween-80
[18] = dose: 50.0 mg/kg/injection, schedule: Q04DX003 (ip), vehicle: saline with Tween-80

In the case of C[Si](C)(C)N=S1(=N[Si](C)(C)C)CCCC1, the T/C (dose: 50.0 mg/kg/injection, schedule: Q01DX005 (ip), vehicle: olive oil, sesame oil, peanut oil) is reported as 109 % of control, the T/C (dose: 100.0 mg/kg/injection, schedule: Q01DX005 (ip), vehicle: olive oil, sesame oil, peanut oil) is reported as 109 % of control and the T/C (dose: 200.0 mg/kg/injection, schedule: Q01DX005 (ip), vehicle: olive oil, sesame oil, peanut oil) is reported as 114 % of control.

CCSc1nc2ccc(N3C(=O)C=CC3=O)cc2s1 was tested, and the T/C (dose: 3.12 mg/kg/injection, schedule: Q01DX009 (ip), vehicle: Klucel (hydroxypropylcellulose) (HPC)) was 111 % of control, the T/C (dose: 6.25 mg/kg/injection, schedule: Q01DX009 (ip), vehicle: Klucel (hydroxypropylcellulose) (HPC)) was 119 % of control and the T/C (dose: 12.5 mg/kg/injection, schedule: Q01DX009 (ip), vehicle: Klucel (hydroxypropylcellulose) (HPC)) was 115 % of control.

In the case of CCn1c2ccccc2c2c3ncc4cccn4c3ccc21, the T/C [1] is reported as 94 % of control, the T/C [2] is reported as 98 % of control and the T/C [3] is reported as 106 % of control.

For CC(=O)SCc1nc2ccccc2[nH]1, the T/C [4] was 107 % of control, the T/C [5] was 105 % of control and the T/C [6] was 108 % of control.

In the case of O=C1NC2CSC(CCCCC(=O)ON3C(=O)CCC3=O)C2N1 (configuration not stated), the T/C [7] is reported as 104 % of control, the T/C [8] is reported as 116 % of control and the T/C [9] is reported as 116 % of control.

With O=C(c1cccnc1)c1cc(-c2ccccn2)c(=O)n2ccccc12 the T/C [4] was 99 % of control and 104 % of control, the T/C [5] was 107 % of control and 109 % of control and 88 % of control and the T/C [6] was 104 % of control and 107 % of control and 89 % of control. For the same molecule, the T/C (dose: 200.0 mg/kg/injection, schedule: Q01DX009 (ip), vehicle: saline with Tween-80) was 90 % of control.

In the case of CCS(=O)C(F)(F)C(F)Cl (configuration not stated), the T/C [7] is reported as 97 % of control, the T/C [8] is reported as 100 % of control and the T/C [9] is reported as 100 % of control.

O=C1CSC(c2cccc(Cl)c2)N1CCN1C(=O)CSC1c1cccc(Cl)c1 (configuration not stated) was tested, and the T/C [7] was 100 % of control, the T/C [8] was 93 % of control and the T/C [9] was 86 % of control.

For Nc1nnc2nc(CC(=O)c3ccccc3)c(CC(=O)c3ccccc3)nn12, the T/C (dose: 60.0 mg/kg/injection, schedule: Q01DX005 (ip), vehicle: saline) was 95 % of control, the T/C (dose: 120.0 mg/kg/injection, schedule: Q01DX005 (ip), vehicle: saline) was 94 % of control and the T/C (dose: 240.0 mg/kg/injection, schedule: Q01DX005 (ip), vehicle: saline) was 100 % of control.

For COc1ccc(Nc2nc3c(s2)c(C)c(O)c2ccccc23)cc1, the T/C [1] was 95 % of control, the T/C [2] was 103 % of control and the T/C [3] was 112 % of control.

With Cc1ccc(C(=O)NCCN2CCN3Cc4[nH]c5ccccc5c4CC3C2)cc1 (configuration not stated) the T/C (dose: 100.0 mg/kg/injection, schedule: Q04DX002 (ip), vehicle: saline with Tween-80) was 92 % of control and the T/C (dose: 200.0 mg/kg/injection, schedule: Q04DX002 (ip), vehicle: saline with Tween-80) was 105 % of control.

For CC(O)C(N)C(=O)O (configuration not stated), the T/C [10] was 104 % of control, the T/C [11] was 103 % of control and the T/C [12] was 100 % of control and 108 % of control. For the same molecule, the T/C [13] was 105 % of control, the T/C [14] was 100 % of control and 103 % of control and the T/C [15] was 102 % of control.

With [Cl][Sn]1([Cl])[CH2]CCCCCC[CH2][Sn]([Cl])([Cl])[CH2]CCCCCC[CH2]1 the T/C [7] was 92 % of control and the T/C [8] was 92 % of control.

Nc1nc(N)c2cc(CNc3ccc(C(=O)NC(C(=O)O)C(=O)O)cc3)ccc2n1 was tested, and the T/C (dose: 0.05 mg/kg/injection, schedule: Q01DX009 (ip), vehicle: saline sonified) was 168 % of control, the T/C (dose: 0.1 mg/kg/injection, schedule: Q01DX009 (ip), vehicle: saline sonified) was 204 % of control and the T/C (dose: 0.2 mg/kg/injection, schedule: Q01DX009 (ip), vehicle: saline sonified) was 86 % of control. The T/C (dose: 100.0 micrograms/kg/injection, schedule: Q01DX009 (ip), vehicle: saline sonified) was 159 % of control.

In the case of C=C1C(=O)O[C@@H]2/C=C(/C)C3=CC(=O)[C@@](C)(C[C@@H](OC(=O)C(C)CC)C12)O3 (some centres not stated), the T/C (dose: 10.0 mg/kg/injection, schedule: Q01DX005 (ip), vehicle: Klucel (hydroxypropylcellulose) (HPC)) is reported as 100 % of control, the T/C (dose: 20.0 mg/kg/injection, schedule: Q01DX005 (ip), vehicle: Klucel (hydroxypropylcellulose) (HPC)) is reported as 102 % of control and the T/C (dose: 40.0 mg/kg/injection, schedule: Q01DX005 (ip), vehicle: Klucel (hydroxypropylcellulose) (HPC)) is reported as 114 % of control. For the same molecule, the T/C (dose: 80.0 mg/kg/injection, schedule: Q01DX005 (ip), vehicle: Klucel (hydroxypropylcellulose) (HPC)) was 108 % of control.

O=C(O)C(O)C(O)C1[O][Sb]([c]2ccc([N+](=O)[O-])cc2)[O]C1CO (configuration not stated) was tested, and the T/C [10] was 98 % of control, the T/C [12] was 107 % of control and the T/C [14] was 118 % of control.

CCOC(=O)C1CCC=CC1OC(C)=O (configuration not stated) was tested, and the T/C (dose: 100.0 mg/kg/injection, schedule: Q01DX001 (ip), vehicle: olive oil, sesame oil, peanut oil) was 112 % of control, the T/C (dose: 200.0 mg/kg/injection, schedule: Q01DX001 (ip), vehicle: olive oil, sesame oil, peanut oil) was 108 % of control and the T/C (dose: 400.0 mg/kg/injection, schedule: Q01DX001 (ip), vehicle: olive oil, sesame oil, peanut oil) was 107 % of control.

In the case of Cc1cc(O)c(C(C)C)cc1S(=O)(=O)O (tested in a mixture with another compound), the T/C [16] is reported as 100 % of control, the T/C [17] is reported as 95 % of control and 108 % of control and the T/C (dose: 400.0 mg/kg/injection, schedule: Q04DX003 (ip), vehicle: saline with Tween-80) is reported as 108 % of control.

For c1ccc(-c2ccc[n+](CCC[n+]3cccc(-c4ccccn4)c3)c2)nc1, the T/C [7] was 114 % of control and the T/C [8] was 114 % of control.

With COC(=O)C1(C2CCCCCCC2=O)NC(=S)NC(=O)C1C#N (configuration not stated) the T/C [1] was 92 % of control, the T/C [2] was 99 % of control and the T/C [3] was 99 % of control.

For C[Si](C)(C)CCCn1ccc(=O)[nH]c1=O, the T/C [1] was 98 % of control, the T/C [2] was 92 % of control and the T/C [3] was 88 % of control.

In the case of Nc1nc(=S)c2[nH]c(=S)[nH]c2[nH]1, the T/C (dose: 25.0 mg/kg/injection, schedule: Q04DX003 (ip), vehicle: saline with Tween-80) is reported as 118 % of control, the T/C [18] is reported as 118 % of control and the T/C [6] is reported as 118 % of control. The T/C [16] was 118 % of control, the T/C (dose: 264.0 mg/kg/injection, schedule: Q04DX003 (ip), vehicle: saline with Tween-80) was 150 % of control and the T/C (dose: 400.0 mg/kg/injection, schedule: Q01DX009 (ip), vehicle: saline with Tween-80) was 113 % of control. The T/C (dose: 600.0 mg/kg/injection, schedule: Q04DX003 (ip), vehicle: saline with Tween-80) was 150 % of control.

For COc1ccc(C(Cl)c2ccc(OC)c(OC)c2)cc1OC, the T/C (dose: 25.0 mg/kg/injection, schedule: Q01DX009 (ip), vehicle: other) was 100 % of control, the T/C (dose: 50.0 mg/kg/injection, schedule: Q01DX009 (ip), vehicle: other) was 90 % of control and the T/C (dose: 100.0 mg/kg/injection, schedule: Q01DX009 (ip), vehicle: other) was 97 % of control.

With COc1cc(NCCC2CCCCN2)c2ncccc2c1 (configuration not stated) the T/C (dose: 6.25 mg/kg/injection, schedule: Q01DX005 (ip), vehicle: saline) was 100 % of control and the T/C (dose: 12.5 mg/kg/injection, schedule: Q01DX005 (ip), vehicle: saline) was 100 % of control.

For CC(=O)Nc1ccc(S(=O)(=O)NCCSSCCNS(=O)(=O)c2ccc(NC(C)=O)cc2)cc1, the T/C (dose: 50.0 mg/kg/injection, schedule: Q01DX009 (ip), vehicle: Klucel (hydroxypropylcellulose) (HPC)) was 102 % of control, the T/C (dose: 100.0 mg/kg/injection, schedule: Q01DX009 (ip), vehicle: Klucel (hydroxypropylcellulose) (HPC)) was 94 % of control and the T/C (dose: 200.0 mg/kg/injection, schedule: Q01DX009 (ip), vehicle: Klucel (hydroxypropylcellulose) (HPC)) was 91 % of control.

For O=C(O)CCC(=O)NCCNC(=O)CCC(=O)O, the T/C [11] was 101 % of control, the T/C [13] was 101 % of control and the T/C [15] was 104 % of control.

For NC1CC2(CCC1=O)c1ccccc1-c1ccccc12 (configuration not stated), the T/C (dose: 100.0 mg/kg/injection, schedule: Q01DX001 (ip), vehicle: saline with Tween-80) was 105 % of control and the T/C (dose: 400.0 mg/kg/injection, schedule: Q01DX001 (ip), vehicle: saline with Tween-80) was 102 % of control.

In the case of COc1ccc(OC(C)C(=O)O)cc1 (configuration not stated), the T/C (dose: 50.0 mg/kg/injection, schedule: Q01DX005 (ip), vehicle: Klucel (hydroxypropylcellulose) (HPC)) is reported as 101 % of control, the T/C (dose: 100.0 mg/kg/injection, schedule: Q01DX005 (ip), vehicle: Klucel (hydroxypropylcellulose) (HPC)) is reported as 98 % of control and the T/C (dose: 200.0 mg/kg/injection, schedule: Q01DX005 (ip), vehicle: Klucel (hydroxypropylcellulose) (HPC)) is reported as 95 % of control.

In the case of CCSc1nc(C)cc(Cl)n1, the T/C [18] is reported as 100 % of control, the T/C [16] is reported as 100 % of control and the T/C [17] is reported as 113 % of control.
